We go through 17 compounds from patent publication US7906491B2 (Univisitair Medisch Centrum Utrecht, priority 2002, dated 2011).

One assay relates to PKAII. The assay can be described thus: Relative affinity for PKAII (cAMP = 1), in vitro. As to conditions: relative to cAMP = 1. Type of assay: binding.
The subject of another assay is PKAI. The assay can be described thus: Relative affinity for PKAI (cAMP = 1), in vitro. To be noted: relative to cAMP = 1. Type of assay: binding.
The target of the next assay is T1, Epac1-ΔDEP1 (Homo sapiens, UniProt O95398).
T1 sequence (O95398 191-923 limits assumed): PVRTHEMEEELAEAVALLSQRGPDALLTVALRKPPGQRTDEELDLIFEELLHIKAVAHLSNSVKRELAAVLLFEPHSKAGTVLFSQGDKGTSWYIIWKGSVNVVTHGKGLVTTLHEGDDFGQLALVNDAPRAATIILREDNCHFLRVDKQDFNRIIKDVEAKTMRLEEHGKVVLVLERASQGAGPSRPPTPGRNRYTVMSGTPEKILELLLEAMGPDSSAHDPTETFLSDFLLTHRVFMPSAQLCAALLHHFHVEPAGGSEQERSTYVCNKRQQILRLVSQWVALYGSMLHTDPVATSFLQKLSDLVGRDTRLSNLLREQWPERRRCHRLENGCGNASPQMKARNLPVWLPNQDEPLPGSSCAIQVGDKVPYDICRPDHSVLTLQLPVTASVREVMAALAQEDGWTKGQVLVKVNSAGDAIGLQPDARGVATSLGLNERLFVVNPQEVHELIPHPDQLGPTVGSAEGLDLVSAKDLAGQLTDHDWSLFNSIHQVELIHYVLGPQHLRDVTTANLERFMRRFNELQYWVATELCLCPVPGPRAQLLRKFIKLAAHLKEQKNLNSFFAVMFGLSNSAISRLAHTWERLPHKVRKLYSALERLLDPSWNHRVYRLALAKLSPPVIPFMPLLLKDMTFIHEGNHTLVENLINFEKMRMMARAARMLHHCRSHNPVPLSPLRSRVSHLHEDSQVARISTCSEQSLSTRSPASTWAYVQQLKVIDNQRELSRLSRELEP
The assay can be described thus: In vitro GEF assay: Epac activity in the exchange reaction towards Rap (mantGDP-loaded Rap1b). Also: key: +++: activity comparible to I-007; ++: activity between I-007 and cAMP; +: activity comparible to cAMP; ±: activity less than cAMP. Format: biochemical. As to conditions: in vitro in the exchange reaction towards Rap. The procedure:
In vitro GEF assays were performed as described (3,16). […] Buffer conditions were 50 mM Tris pH7.4, 150 mM NaCl, 5% glycerol, 5 mM DTE, 60 μM GTP. Reactions were carried out in 96-well plates and measured in a Cary Eclipse from Varian Inc., using the manufacturers software.

A further assay addresses T2, Epac (Homo sapiens, UniProt O95398).
T2 sequence (O95398 1-923): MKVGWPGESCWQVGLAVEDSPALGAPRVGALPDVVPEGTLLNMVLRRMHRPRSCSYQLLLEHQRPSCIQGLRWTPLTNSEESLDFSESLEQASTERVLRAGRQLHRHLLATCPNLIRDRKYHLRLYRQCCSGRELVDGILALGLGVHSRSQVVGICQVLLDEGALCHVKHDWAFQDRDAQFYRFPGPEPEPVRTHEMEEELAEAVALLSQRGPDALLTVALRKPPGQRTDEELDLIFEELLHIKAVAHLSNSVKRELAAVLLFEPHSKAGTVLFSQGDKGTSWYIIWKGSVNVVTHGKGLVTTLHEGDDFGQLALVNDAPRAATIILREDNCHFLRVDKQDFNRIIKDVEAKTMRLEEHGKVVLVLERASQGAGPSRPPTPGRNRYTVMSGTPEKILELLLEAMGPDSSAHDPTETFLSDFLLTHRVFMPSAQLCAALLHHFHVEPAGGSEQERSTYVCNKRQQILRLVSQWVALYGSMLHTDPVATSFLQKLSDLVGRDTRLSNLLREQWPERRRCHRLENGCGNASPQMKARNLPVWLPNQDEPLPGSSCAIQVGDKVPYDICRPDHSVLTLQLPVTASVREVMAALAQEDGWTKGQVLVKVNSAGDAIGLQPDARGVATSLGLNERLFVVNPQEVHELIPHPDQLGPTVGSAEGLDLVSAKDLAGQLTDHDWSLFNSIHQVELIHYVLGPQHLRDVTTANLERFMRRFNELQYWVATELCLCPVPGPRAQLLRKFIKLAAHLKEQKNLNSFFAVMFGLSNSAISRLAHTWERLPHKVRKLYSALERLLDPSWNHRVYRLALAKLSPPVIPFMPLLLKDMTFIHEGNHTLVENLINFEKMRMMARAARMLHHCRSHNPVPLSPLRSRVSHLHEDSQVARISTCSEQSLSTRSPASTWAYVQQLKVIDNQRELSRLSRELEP
The assay can be described thus: Relative affinity for Epac (cAMP = 1), in vitro. Format: binding. To be noted: relative to cAMP = 1.

“2′-deoxyadenosine-3′,5′-cyclic monophosphate [Compound I-001]”: in the assay with PKAII, the “Relative affinity CAMP = 1 PKAII” value came to 0.000088. Moreover, in the assay with PKAI, the “Relative affinity CAMP = 1 PKAI” value was found to be 0.00013. The “Relative activity of Epac*” value at Epac1-ΔDEP1 is recorded as “+”. On Epac, the “Relative affinity CAMP = 1 Epac” value is on record as 0.0025.

As for “8-(2-amino-phenylthio)-2′-O-methyladenosine-3′,5′-cyclic monophosphate [Compound I-107]”, the “Relative affinity CAMP = 1 PKAII” value in the assay with PKAII was 0.0001. Also, the “Relative affinity CAMP = 1 PKAI” value in the assay with PKAI is on record as 0.004. In addition, on Epac1-ΔDEP1, the “Relative activity of Epac*” value is “+”. Also, the “Relative affinity CAMP = 1 Epac” value at Epac is reported as 1.3.

Take “8-(4-chloro-phenylthio)-2′-deoxyadenosine-3′,5′-cyclic monophosphate [Compound I-003]”: in the assay with PKAII, the “Relative affinity CAMP = 1 PKAII” value is given as 0.001. In addition, the “Relative affinity CAMP = 1 PKAI” value in the assay on PKAI stood at 0.001. The “Relative activity of Epac*” value on Epac1-ΔDEP1 was “+”. For the same compound, the “Relative affinity CAMP = 1 Epac” value on Epac is 0.2.

Consider “8-(4-fluoro-phenylthio)-2′-O-methyladenosine-3′,5′-cyclic monophosphate [Compound I-102]”, for which the “Relative affinity CAMP = 1 PKAII” value in the assay on PKAII was 0.0004. In addition, the “Relative affinity CAMP = 1 PKAI” value in the assay on PKAI came to 0.02. Also, at Epac1-ΔDEP1, the “Relative activity of Epac*” value is recorded as “+++”. For the same compound, on Epac, the “Relative affinity CAMP = 1 Epac” value is 4.5.

Consider “8-(4-methoxy-phenylthio)-2′-O-methyladenosine-3′,5′-cyclic monophosphate [Compound I-112]”, for which the “Relative affinity CAMP = 1 PKAII” value in the assay on PKAII came out at 0.0006. The “Relative affinity CAMP = 1 PKAI” value with PKAI was 0.025. Also, the “Relative activity of Epac*” value on Epac1-ΔDEP1 is recorded as “+++”. Further, the “Relative affinity CAMP = 1 Epac” value at Epac is 6.5.

Consider “8-(4-methyl-cumarinyl-7-thio)-2′-O-methyladenosine-3′,5′-cyclic monophosphate [Compound I-103]”, for which the “Relative affinity CAMP = 1 PKAII” value in the assay on PKAII turned out to be 0.0005. In the assay with PKAI, the “Relative affinity CAMP = 1 PKAI” value is on record as 0.03. For the same compound, the “Relative activity of Epac*” value on Epac1-ΔDEP1 is “±”. The “Relative affinity CAMP = 1 Epac” value on Epac worked out at 1.8.

In the case of “8-(4-nitro-phenylthio)-2′-O-methyladenosine-3′,5′-cyclic monophosphate [Compound I-106]”, the “Relative affinity CAMP = 1 PKAII” value in the assay with PKAII worked out at 0.0002. Moreover, the “Relative affinity CAMP = 1 PKAI” value in the assay on PKAI worked out at 0.02. Also, on Epac1-ΔDEP1, the “Relative activity of Epac*” value is recorded as “++”. For the same compound, the “Relative affinity CAMP = 1 Epac” value at Epac is 1.2.

Turning to “8-(naphtyl-2-thio)-2′-O-methyladenosine-3′,5′-cyclic monophosphate [Compound I-104]”, the “Relative affinity CAMP = 1 PKAII” value in the assay on PKAII is recorded as 0.001. For the same compound, the “Relative affinity CAMP = 1 PKAI” value in the assay with PKAI stood at 0.03. Further, the “Relative activity of Epac*” value on Epac1-ΔDEP1 is “++”. Also, at Epac, the “Relative affinity CAMP = 1 Epac” value turned out to be 2.3.

Take “8-benzylthio-2′-O-methyladenosine-3′,5′-cyclic monophosphate [Compound I-108]”: the “Relative affinity CAMP = 1 PKAII” value with PKAII came to 0.0007. The “Relative affinity CAMP = 1 PKAI” value in the assay on PKAI is 0.04. Moreover, at Epac1-ΔDEP1, the “Relative activity of Epac*” value is given as “+”. For the same compound, the “Relative affinity CAMP = 1 Epac” value on Epac is recorded as 1.3.

For the compound “8-bromo-2′-O-methyladenosine-3′,5′-cyclic monophosphate [Compound I-006]”, in the assay with PKAII, the “Relative affinity CAMP = 1 PKAII” value is 0.003. The “Relative affinity CAMP = 1 PKAI” value with PKAI came to 0.0015. At Epac1-ΔDEP1, the “Relative activity of Epac*” value was “++”. In addition, on Epac, the “Relative affinity CAMP = 1 Epac” value came out at 0.9.

Turning to “8-bromo-2′-deoxyadenosine-3′,5′-cyclic monophosphate [Compound I-002]”, the “Relative affinity CAMP = 1 PKAII” value in the assay with PKAII turned out to be 0.00001. In the assay with PKAI, the “Relative affinity CAMP = 1 PKAI” value is given as 0.01. For the same compound, at Epac1-ΔDEP1, the “Relative activity of Epac*” value is “+”. Moreover, the “Relative affinity CAMP = 1 Epac” value at Epac is 0.12.

With “8-isopropylthio-2′-O-methyladenosine-3′,5′-cyclic monophosphate [Compound I-113]”, in the assay with PKAII, the “Relative affinity CAMP = 1 PKAII” value came out at 0.0004. Further, the “Relative affinity CAMP = 1 PKAI” value in the assay with PKAI worked out at 0.028. For the same compound, the “Relative activity of Epac*” value at Epac1-ΔDEP1 is listed as “+”. In addition, the “Relative affinity CAMP = 1 Epac” value at Epac was determined as 0.7.

In the case of “8-methylamino-2′-O-methyladenosine-3′,5′-cyclic monophosphate [Compound I-100]”, the “Relative affinity CAMP = 1 PKAII” value in the assay with PKAII worked out at 0.0001. Besides, the “Relative affinity CAMP = 1 PKAI” value in the assay on PKAI was 0.0014. The “Relative activity of Epac*” value on Epac1-ΔDEP1 is “±”. Besides, on Epac, the “Relative affinity CAMP = 1 Epac” value is recorded as <0.5.

For the compound “8-methylthio-2′-O-methyladenosine-3′,5′-cyclic monophosphate [Compound I-101]”, the “Relative affinity CAMP = 1 PKAII” value with PKAII is 0.0006. Besides, in the assay on PKAI, the “Relative affinity CAMP = 1 PKAI” value amounted to 0.012. For the same compound, the “Relative activity of Epac*” value at Epac1-ΔDEP1 was “+”. On Epac, the “Relative affinity CAMP = 1 Epac” value stood at 1.3.

In the case of “8-n-hexylthio-2′-O-methyladenosine-3′,5′-cyclic monophosphate [Compound I-109]”, the “Relative affinity CAMP = 1 PKAII” value in the assay on PKAII worked out at 0.0008. Further, the “Relative affinity CAMP = 1 PKAI” value in the assay with PKAI was found to be 0.03. For the same compound, the “Relative activity of Epac*” value on Epac1-ΔDEP1 is “++”. For the same compound, the “Relative affinity CAMP = 1 Epac” value on Epac is given as 1.2.

Turning to “8-phenylthio-2′-O-methyladenosine-3′,5′-cyclic monophosphate [Compound I-105]”, in the assay with PKAII, the “Relative affinity CAMP = 1 PKAII” value is reported as 0.0005. Moreover, the “Relative affinity CAMP = 1 PKAI” value with PKAI came to 0.02. The “Relative activity of Epac*” value on Epac1-ΔDEP1 was “++”. The “Relative affinity CAMP = 1 Epac” value at Epac is given as 3.6.

On to `O=[P@]1(O)OC[C@H]2O[C@@H](n3c(Sc4ccc(Cl)cc4)nc4c(Nc5ccccc5)ncnc43)C[C@@H]2O1` [Compound I-004, 8-(4-chloro-phenylthio)-N^6-phenyl-2′-deoxyadenosine-3′,5′-cyclic monophosphate], for which, in the assay on PKAII, the “Relative affinity CAMP = 1 PKAII” value was 0.26. The “Relative affinity CAMP = 1 PKAI” value in the assay with PKAI is on record as 0.03. Besides, the “Relative affinity CAMP = 1 Epac” value on Epac was 0.5.
